Results taken from doi:10.1101/2020.08.05.237982v3, “ThermoBRET: a ligand-engagement nanoscale thermostability assay applied to GPCRs” (biorxiv, 2023).

Target: T1, CB2 (Nluc-CB2, tsNluc-CB2) (Homo sapiens, UniProt P34972)
T1 construct: gene CNR2; N-terminal cleaved signal peptide, TwinStrep tag and Nluc or tsNluc
Assay type: binding
Conditions: Nluc-CB2, 20 µM ligand, DDM/CHAPSO/CHS

T1 sequence (P34972 whole entry): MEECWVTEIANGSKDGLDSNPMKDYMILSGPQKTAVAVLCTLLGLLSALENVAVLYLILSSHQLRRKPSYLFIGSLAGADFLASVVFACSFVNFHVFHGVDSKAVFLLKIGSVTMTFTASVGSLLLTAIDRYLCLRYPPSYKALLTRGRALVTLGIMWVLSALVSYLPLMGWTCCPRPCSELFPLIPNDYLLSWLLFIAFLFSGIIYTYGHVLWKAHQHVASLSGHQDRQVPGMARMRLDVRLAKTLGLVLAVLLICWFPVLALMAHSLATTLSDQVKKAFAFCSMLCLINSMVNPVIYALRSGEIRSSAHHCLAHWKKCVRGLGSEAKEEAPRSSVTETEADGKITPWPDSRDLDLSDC

Row | SMILES | dTm
1 | CCCCCCC(C)(C)c1cc(OC)c([C@@H]2C=C(CO)[C@@H]3C[C@H]2C3(C)C)c(OC)c1 [HU308] | HU308 and SR144528 also produced appreciable increases in thermostability
2 | Cc1ccc(Cn2nc(C(=O)N[C@@H]3C(C)(C)[C@@H]4CC[C@@]3(C)C4)cc2-c2ccc(Cl)c(C)c2)cc1 [SR144528] | HU308 and SR144528 also produced appreciable increases in thermostability
